Consider seven molecules from PMC9658513, “Discovery of Compounds That Selectively Repress the Amyloidogenic Processing of the Amyloid Precursor Protein: Design, Synthesis and Pharmacological Evaluation of Diphenylpyrazoles” (International Journal of Molecular Sciences, 2022).

Where two headings read alike, the source gives them in different places.

Common to all, as to assay type: cell-based, human
Series [1] concerns AICD (APP intracellular domain). Description: AICD level by Western blotting in SY5Y-APP^WT cells. The settings on record: concentration increasing AICD 20-fold vs untreated control, read-out: AICD (C20). An outline of the steps:
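SH-SY5Y cells stably expressing human wild-type APP695 treated with compounds for 24 h at 37 °C. αCTF and AICD measured by Western blot of lysates (10 µg protein, 12% Bis-Tris gels) as band intensity; C20 is concentration raising these fragments 20-fold over control.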

The next series can be described thus: in vitro. The settings on record: human. An outline of the steps: (§1)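 Cells seeded at 3 × 10^4 per well, attached 24 h, then exposed to drug for 72 h in DMEM with 10% SVF. Viability by MTS colorimetric assay, absorbance at 490 nm.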
Another series has as its system sAPPβ secretion. Description: sAPPβ secretion (MSD sAPPα/sAPPβ Multiplex Kit). Conditions: SY5Y cells, mean ± SD of at least three experiments in triplicate. The procedure: (§2) A selection of compounds with several selected activities was performed including sAPPα and sAPPβ, which were further explored. […] The decrease in Aβ could result from a decrease in either β- or γ-secretase cleavage or an increase in the α-secretase cleavage of APP. Thus, medium concentrations of sAPPβ and sAPPα, which are the β- and α-secretase extramembrane shed APP fragments, were determined after cell drug treatments.
(§3) The human neuroblastoma cell line SY5Y-APP^695WT was maintained in Dulbecco’s modified Eagle medium (DMEM, high glucose, pyruvate—GIBCO, Life Technologies, Carlsbad, CA, USA) supplemented with 10% fetal bovine serum, 2 mM L-glutamine, 1 mM non-essential amino acids and penicillin/streptomycin (GIBCO, Life Technologies, Carlsbad, CA, USA) at 37 °C in a 5% CO2 humidified incubator [36]. For compound treatment, a 10 mM stock solution was diluted in freshly supplemented DMEM medium to obtain the precise final concentration of the drug. Cells were plated at a density of 5 × 10^5 cells per well into 12-well plates and cultured with 1 mL supplemented DMEM cell medium for 24 h before compound exposure. The following day, the cell medium was replaced with fresh medium containing the compounds diluted at the indicated concentrations. Cells were treated for 24 h. At the end of the treatments, the cell medium was collected and kept at −80 °C until use, cells were rinsed once with PBS and extracted in 100 µL of Laemmli buffer (10 mM Tris, 20% glycerol, and 2% sodium dodecyl sulfate) using a cell-scraper. The cell lysate was further sonicated (30 pulses of 0.5 s, 60 Hz) for 5 min. Total protein concentration was determined using the Pierce BCA Protein Assay Kit (Thermo Scientific, Waltham, MA, USA) according to the manufacturer’s instructions. Samples were stored at −80 °C until analysis.
Conditioned media of SY5Y-APP^695WT collected at the end of treatments were centrifuged at 1000× g for 5 min to eliminate cell debris.
(§4) Aβ1–40/Aβ1–42 peptides, Aβx–38/Aβx–40/Aβx–42, and sAPPα/sAPPβ concentrations in pg/mL were determined, respectively, using amyloid-beta 40 and 42 Human ELISA Kits (Invitrogen), the V-PLEX Plus Aβ Peptide Panel 1 (4G8) Kit (Meso Scale Diagnostics, MSD R©, Rockville, MD, USA), and the sAPPα/sAPPβ Multiplex Kit (Meso Scale Diagnostics, MSD R©, Rockville, MD, USA) according to the manufacturer’s instructions.

For a further series, the system named is SY5Y-APP^695WT cells. In words: in vitro. An outline of the steps: as §1
Another series has as its system sAPPα. Description: sAPPα secretion (MSD sAPPα/sAPPβ Multiplex Kit). The settings on record: concentration increasing sAPPα 1.5-fold vs untreated control. The procedure:
as §2
as §3, with “The cell lysate was further sonicated (30 pulses of 0.5 s, 60 Hz) for 5 min.” left out, “Samples were stored at −80 °C until analysis.” left out
as §4

Turning to `CN(C)CCCc1ccc(-c2nn(-c3ccc(CN(C)C)cc3)cc2CN(C)C)cc1` [Compound 24, 3-[4-[4-(Dimethylaminomethyl)-1-[4-(dimethylaminomethyl)phenyl] Pyrazol-3-yl]phenyl]-N,N-dimethyl-propan-1-amine], the EC (20-fold increase) in series [1] (Homo sapiens) was determined as 2.2 µM. The molecule also showed a half-maximal cytotoxic concentration (CC50) at 72 h in “in vitro” greater than 100 µM.

`Cc1cn(-c2cccc(CO)c2)nc1-c1ccc(CN(C)CCCN(C)C)cc1` [Compound 57, (3-{3-[4-({[3-(Dimethylamino)propyl](methyl)amino}methyl)phenyl]-4-methyl-1H-pyrazol-1-yl}phenyl)methanol]: the EC (20-fold increase) in series [1] (Homo sapiens) turned out to be 8.5 µM. In “in vitro”, this molecule displayed a half-maximal cytotoxic concentration (CC50) at 72 h greater than 100 µM.

As to `Cc1cn(-c2cccc(CN3CCN(C)CC3)c2)nc1-c1cccc(CN(C)C)c1` [Compound 65, N,N-dimethyl-1-[3-[4-methyl-1-[3-[(4-methylpiperazin-1-yl)methyl]phenyl]pyrazol-3-yl]phenyl]methanamine], the EC (20-fold increase) in series [1] (Homo sapiens) was determined as 2.8 µM. The molecule also displayed a cytotoxic concentration (CC50) at 72 h in the series “in vitro” greater than 100 µM.

As to `Cc1cn(-c2cccc(CN(C)C)c2)nc1-c1ccc(CN(C)CCCN(C)C)cc1` [Compound 67, {[4-(1-{3-[(Dimethylamino)methyl]phenyl}-4-methyl-1H-pyrazol-3-yl)phenyl]methyl} [3-(Dimethylamino)propyl]methylamine], the EC (20-fold increase) in series [1] (Homo sapiens) came to 1.2 µM. In the series “in vitro”, this molecule returned a CC50 at 72 h of 12 µM. Further, the concentration for half-maximal inhibition (IC50) with sAPPβ secretion (Homo sapiens) stood at 3.2 ± 1.4 µM.

Take `Cc1cn(-c2cccc(CN(C)C)c2)nc1-c1cccc(CN(C)CCCN(C)C)c1` [Compound 70, N′-[[3-[1-[3-(Dimethylaminomethyl)phenyl]-4-methyl-pyrazol-3-yl]phenyl] Methyl]-N,N,N′-trimethyl-propane-1,3-diamine]: the EC (20-fold increase) in series [1] (Homo sapiens) worked out at 1.7 µM. The same molecule had a CC50 at 72 h in “in vitro” of 51 µM.

With `Cc1cn(-c2cccc(CN3CCN(C)CC3)c2)nc1-c1cccc(CN(C)CCCN(C)C)c1` [Compound 71, N,N,N′-Trimethyl-N′-[[3-[4-methyl-1-[3-[(4-methylpiperazin-1-yl)methyl]phenyl]pyrazol-3-yl]phenyl]methyl]propane-1,3-diamine], the EC (20-fold increase) in series [1] (Homo sapiens) worked out at 1 µM. Besides, the CC50 at 72 h in “in vitro” came to 25 µM. Moreover, in the series with sAPPβ secretion (Homo sapiens), the half-maximal inhibitory concentration (IC50) was determined as 4 ± 0.4 µM.

As for “N′-[[4-[4-[3-(Dimethylamino)propyl]-3-[4-[3-(dimethylamino)propyl]phenyl] Pyrazol-1-yl]phenyl]methyl]-N,N,N′-trimethyl-propane-1,3-diamine [Compound 33]”, the EC (20-fold increase) in series [1] came out at 8.9 µM. Moreover, in the series with SY5Y-APP^695WT cells, the 50% cytotoxic concentration (CC50) was greater than 100 µM and the “Cytotox. CC50” value is listed as 100 µM. Also, the half-maximal inhibitory concentration (IC50) in the series on sAPPβ secretion was 6.8 ± 0.3 µM. In addition, in the series on sAPPα, the “sAPPα C1.5” value is on record as greater than 10 µM.
